Consider 25 molecules from patent publication US9434711B2 (Janssen Pharmaceutica, NV, priority 2007, dated 2016).

This assay concerns the target canine TRPM8 (Canis lupus familiaris, UniProt Q1A7N1). Put plainly: In Vitro Canine TRPM8 Functional Assay (Ca2+ fluorescence, icilin activation). The conditions noted are these: for inhibition at 0.2 µM: compound at 0.2 μM, read-out: % Inh @ 0.2; for inhibition at 0.2 µM / inhibition at 0.5 µM: canine TRPM8, icilin activation; for inhibition at 0.5 µM: compound at 0.5 μM, read-out: % Inh @ 0.5; for IC50: HEK293 cells stably expressing canine TRPM8, icilin activation, eight-point dose-response, read-out: IC50. The class given is cell-based. The method in brief:
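Eight-point dose-response curves in quadruplicate gave EC50 or IC50 values from a Ca2+-sensitive dye assay in HEK293 cells stably carrying canine TRPM8. Icilin, dosed near its 80% maximal level, followed a 5 min compound exposure.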

canine TRPM8, sequence (Q1A7N1 1-1104): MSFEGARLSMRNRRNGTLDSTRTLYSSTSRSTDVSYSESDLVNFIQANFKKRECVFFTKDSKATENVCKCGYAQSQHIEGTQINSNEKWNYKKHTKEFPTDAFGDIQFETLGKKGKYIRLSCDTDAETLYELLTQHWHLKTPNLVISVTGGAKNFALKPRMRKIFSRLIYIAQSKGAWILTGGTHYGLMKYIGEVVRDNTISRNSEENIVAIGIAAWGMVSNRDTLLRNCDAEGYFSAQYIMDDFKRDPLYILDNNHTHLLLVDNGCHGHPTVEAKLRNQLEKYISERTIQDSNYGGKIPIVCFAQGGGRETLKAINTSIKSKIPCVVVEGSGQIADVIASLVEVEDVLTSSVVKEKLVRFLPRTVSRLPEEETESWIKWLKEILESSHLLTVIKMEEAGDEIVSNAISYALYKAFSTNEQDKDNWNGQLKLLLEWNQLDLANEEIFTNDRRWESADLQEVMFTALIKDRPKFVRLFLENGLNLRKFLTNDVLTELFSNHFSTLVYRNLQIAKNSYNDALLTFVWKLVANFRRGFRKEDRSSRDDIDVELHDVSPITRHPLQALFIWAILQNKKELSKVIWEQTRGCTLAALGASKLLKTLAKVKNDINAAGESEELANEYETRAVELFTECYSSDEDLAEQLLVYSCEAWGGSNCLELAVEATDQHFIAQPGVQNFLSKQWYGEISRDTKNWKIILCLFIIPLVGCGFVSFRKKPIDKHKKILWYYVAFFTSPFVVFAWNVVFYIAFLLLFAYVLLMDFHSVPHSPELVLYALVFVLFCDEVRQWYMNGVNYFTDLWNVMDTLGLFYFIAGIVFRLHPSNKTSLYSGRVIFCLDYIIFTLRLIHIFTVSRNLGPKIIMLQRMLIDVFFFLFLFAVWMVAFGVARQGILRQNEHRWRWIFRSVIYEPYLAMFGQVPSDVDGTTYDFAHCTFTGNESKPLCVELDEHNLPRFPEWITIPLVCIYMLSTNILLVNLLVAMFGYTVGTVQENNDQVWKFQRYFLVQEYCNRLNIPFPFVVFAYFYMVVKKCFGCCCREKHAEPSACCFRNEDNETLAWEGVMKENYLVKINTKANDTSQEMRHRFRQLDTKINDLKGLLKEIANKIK

Take `COc1ccc2c(Br)c(N(Cc3ccc(F)c(F)c3)S(=O)(=O)c3cccnc3)sc2c1` [Compound 141, N-(3-Bromo-6-methoxy-benzo[b]thiophen-2-yl)-N-(3,4-difluoro-benzyl)-pyridin-3-yl-sulfonamide]: the inhibition at 0.2 µM is 18%.

With `COc1cccc2cc(N(Cc3ccc(F)c(F)c3)S(=O)(=O)c3ccccc3)sc12` [Compound 142, N-(3,4-Difluoro-benzyl)-N-(7-methoxy-benzo[b]thiophen-2-yl)-benzenesulfonamide], the inhibition at 0.5 µM worked out at 60%.

In the case of `COc1cccc2c(Cl)c(N(Cc3ccc(F)c(F)c3)S(=O)(=O)c3ccccc3)sc12` [Compound 143, N-(3-Chloro-7-methoxy-benzo[b]thiophen-2-yl)-N-(3,4-difluoro-benzyl)-benzenesulfonamide], the inhibition at 0.5 µM is 48%. On to `COc1c(Cl)ccc2c(Cl)c(N(Cc3ccc(F)c(F)c3)S(=O)(=O)c3ccccc3)sc12` [Compound 144, N-(3,6-Dichloro-7-methoxy-benzo[b]thiophen-2-yl)-N-(3,4-difluoro-benzyl)-benzenesulfonamide], for which the inhibition at 0.5 µM stood at 62%. For the molecule `O=S(=O)(c1ccccc1)N(Cc1ccc(F)c(F)c1)c1cc2cccnc2s1` [Compound 147, N-(3,4-Difluoro-benzyl)-N-thieno[2,3-b]pyridin-2-yl-benzenesulfonamide], the IC50 was found to be 78.2 nM and the inhibition at 0.5 µM came out at 96%. The like results for `Cn1cnc(S(=O)(=O)N(Cc2ccc(F)c(F)c2)c2sc3ccccc3c2Br)c1` [Compound 150, N-(3-Bromo-benzo[b]thiophen-2-yl)-N-(3,4-difluoro-benzyl)-1-methyl-1H-imidazole-4-sulfonamide] were, in that order, 15.4 nM and 100%. The like results for `CS(=O)(=O)N(Cc1ccc(F)c(F)c1)c1sc2ccccc2c1Br` [Compound 151, N-(3-Bromo-benzo[b]thiophen-2-yl)-N-(3,4-difluoro-benzyl)-methanesulfonamide] were, in that order, 16.7 nM and 96%. Taken in the same sequence, the figures for `CCS(=O)(=O)N(Cc1ccc(F)c(F)c1)c1sc2ccccc2c1Br` [Compound 152, N-(3-Bromo-benzo[b]thiophen-2-yl)-N-(3,4-difluoro-benzyl)-ethanesulfonamide] were 2.6 nM and 95%.

With `CCCS(=O)(=O)N(Cc1ccc(F)c(F)c1)c1sc2ccccc2c1Br` [Compound 153, N-(3-Bromo-benzo[b]thiophen-2-yl)-N-(3,4-difluoro-benzyl)-propane-1-sulfonamide], the IC50 is 18.8 nM and the inhibition at 0.5 µM worked out at 97%. The like results for `CCCCS(=O)(=O)N(Cc1ccc(F)c(F)c1)c1sc2ccccc2c1Br` [Compound 154, N-(3-Bromo-benzo[b]thiophen-2-yl)-N-(3,4-difluoro-benzyl)-butane-1-sulfonamide] were, in that order, 36.2 nM and 96%. As to `O=S(=O)(c1cccc(F)c1)N(Cc1ccc(F)c(F)c1)c1sc2ccccc2c1Br` [Compound 155, N-(3-Bromo-benzo[b]thiophen-2-yl)-N-(3,4-difluoro-benzyl)-3-fluoro-benzenesulfonamide], the IC50 was 4 nM and the inhibition at 0.5 µM is 99%. On to `O=S(=O)(c1ccc(C(F)(F)F)cc1)N(Cc1ccc(F)c(F)c1)c1sc2ccccc2c1Br` [Compound 156, N-(3-Bromo-benzo[b]thiophen-2-yl)-N-(3,4-difluoro-benzyl)-4-trifluoromethyl-benzenesulfonamide], for which the inhibition at 0.5 µM was 65%. With `CS(=O)(=O)N(Cc1ccc(F)c(C(F)(F)F)c1)c1sc2ccccc2c1Br` [Compound 157, N-(3-Bromo-benzo[b]thiophen-2-yl)-N-(4-fluoro-3-trifluoromethyl-benzyl)-methanesulfonamide], the IC50 amounted to 14 nM and the inhibition at 0.2 µM was 100%. As to `O=S(=O)(c1ccccc1)N(Cc1ccc(Cl)cc1)c1sc2ccccc2c1Cl` [Compound 158, N-(3-Chloro-benzo[b]thiophen-2-yl)-N-(4-chloro-benzyl)-benzenesulfonamide], the IC50 was 10.4 nM and the inhibition at 0.5 µM came out at 94%. The like results for `O=S(=O)(c1ccccc1)N(Cc1ccc(Cl)cc1)c1sc2ccccc2c1Br` [Compound 159, N-(3-Bromo-benzo[b]thiophen-2-yl)-N-(4-chloro-benzyl)-benzenesulfonamide] were, in that order, 13.4 nM and 98%. `COc1ccccc1CN(c1sc2ccccc2c1Br)S(=O)(=O)c1ccccc1` [Compound 160, N-(3-Bromo-benzo[b]thiophen-2-yl)-N-(2-methoxy-benzyl)-benzenesulfonamide]: the IC50 came to 35.8 nM and the inhibition at 0.5 µM worked out at 97%. Taken in the same sequence, the figures for `COc1ccc(Br)cc1CN(c1sc2ccccc2c1Br)S(=O)(=O)c1ccccc1` [Compound 161, N-(3-Bromo-benzo[b]thiophen-2-yl)-N-(5-bromo-2-methoxy-benzyl)-benzenesulfonamide] were 55.4 nM and 95%.

Regarding `COc1cccc(CN(c2sc3ccccc3c2Br)S(=O)(=O)c2ccccc2)c1` [Compound 162, N-(3-Bromo-benzo[b]thiophen-2-yl)-N-(3-methoxy-benzyl)-benzenesulfonamide], the IC50 came to 4.5 nM and the inhibition at 0.5 µM was found to be 101%.

On to `COc1ccc(Br)c(CN(c2sc3ccccc3c2Br)S(=O)(=O)c2ccccc2)c1` [Compound 163, N-(3-Bromo-benzo[b]thiophen-2-yl)-N-(2-bromo-5-methoxy-benzyl)-benzenesulfonamide], for which the IC50 is 63.9 nM and the inhibition at 0.5 µM came out at 92%.

For `COc1ccc(CN(c2sc3ccccc3c2Br)S(=O)(=O)c2ccccc2)cc1` [Compound 164, N-(3-Bromo-benzo[b]thiophen-2-yl)-N-(4-methoxy-benzyl)-benzenesulfonamide], the IC50 stood at 31.9 nM and the inhibition at 0.5 µM amounted to 97%. Taken in the same sequence, the figures for `COc1ccc(CN(c2sc3ccccc3c2Br)S(=O)(=O)c2ccccc2)cc1Br` [Compound 165, N-(3-Bromo-benzo[b]thiophen-2-yl)-N-(3-bromo-4-methoxy-benzyl)-benzenesulfonamide] were 3.7 nM and 98%. Taken in the same sequence, the figures for `O=S(=O)(c1ccccc1)N(Cc1ccccc1F)c1sc2ccccc2c1Br` [Compound 166, N-(3-Bromo-benzo[b]thiophen-2-yl)-N-(2-fluoro-benzyl)-benzenesulfonamide] were 11.4 nM and 94%. Consider `O=[N+]([O-])c1cccc(CN(c2sc3ccccc3c2Br)S(=O)(=O)c2ccccc2)c1` [Compound 167, N-(3-Bromo-benzo[b]thiophen-2-yl)-N-(3-nitro-benzyl)-benzenesulfonamide], for which the inhibition at 0.5 µM was 101%.

`O=S(=O)(c1ccccc1)N(Cc1cccnc1)c1sc2ccccc2c1Br` [Compound 169, N-(3-Bromo-benzo[b]thiophen-2-yl)-N-(pyridin-3-ylmethyl)-benzenesulfonamide]: the concentration for half-maximal inhibition (IC50) amounted to 21.4 nM and the inhibition at 0.5 µM stood at 98%. The like results for `O=S(=O)(c1ccccc1)N(Cc1ccncc1)c1sc2ccccc2c1Br` [Compound 170, N-(3-Bromo-benzo[b]thiophen-2-yl)-N-(pyridin-4-ylmethyl)-benzenesulfonamide] were, in that order, 44.5 nM and 97%.

What is called IC50 is the concentration that gives 50% inhibition.
